# In patent US20230312491A1, “N-SUBSTITUTED 4-(5-PHENYL-1,3,4-OXADIAZOL-2-YL)ANILINE FOR THE TREATMENT AND PROPHYLAXIS OF HEPATITIS B VIRUS INFECTION” (priority 2020, published 2023):
# Tests used:
# Format in all cases: cell-based
# HBeAg = assay: PHH natural infection assay, HBeAg (alphalisa); conditions: Hepatitis B virus, Hepatocyte, 72 h, read-out: HBeAg IC50
# Experimental: (§1) Detailed procedures regarding primary human hepatocyte (PHH) HBV natural infection assay are described as below. One tube of frozen PHH (10 million cells) is thawed in 37° C. water bath and then transferred to 20 mL of PHH thawing medium (Sigma, InVitroGRO HT Medium, Cat. S03319) with gently mixing. The cells were then centrifuged at […] for 5 min, the supernatant was discarded and the tube was refilled with 25 mL of PHH plating medium (Sigma, InVitroGRO CP Medium, Cat. S03317). The tube was shaken very gently to re-suspend all cells, and then 50 µl of cells were transferred to each well 384-well collagen I coated plate with appropriate liquid handling equipment, e.g. Integra VIAFLO384 or Agilent Bravo. The cells were then cultured for 24 hours in a cell incubator. For HBV infection, after PHH attachment on the culture plate, the plating medium was removed and replenished with PHH culture medium containing HBV virus. The PHH culture medium was prepared with Dulbecco’s Modified Eagle Medium (DMEM)/F12 (1: 1 in volume ratio) containing 10% fetal bovine serum (Gibco, Cat.10099141), 5 ng/mL human epidermal growth factor (Gibco, Cat.PHG0311L), 20 ng/mL dexamethasone (Sigma, Cat.D4902-100 mg), 250 ng/mL human recombinant insulin (Gibco, Cat.41400045) and 100 U/mL penicillin. HBV virus at 200 genome equivalent (GE) per cell with 4% PEG8000 (Sigma, Cat.P1458) containing culture medium were added to the PHH culture medium for infection. The cells were then cultured for 24 hours in cell incubator. Then the cell culture supernatant was removed. The HBV-infected PHH were cultured with sandwich culture method with PHH culture medium containing 1% DMSO and 0.25 mg/mL matrix gel for 72 hours. The supernatant was then refreshed with PHH culture medium containing different concentrations of testing compounds for two times with 72-hour interval. At the end of treatment, the supernatant was collected for viral markers measurements, including HBsAg, HBeAg, HBV DNA and cytotoxicity. HBsAg and HBeAg were detected using alphalisa method using their specific antibodies. For HBV DNA detection, HBV DNA Quantitative Fluorescence Diagnostic Kit (Sansure Biotech Inc.) was used following the manufacture’s protocol. Cytotoxicity was determined using Cell Counting Kit-8 (CCK8, Dojindo Molecular Technologies, Inc.).
# (§2) The compounds of the present invention were tested for their capacity to inhibit HBsAg and HBeAg as described herein.
# [1] = PHH natural infection assay, cytotoxicity (Cell Counting Kit-8); conditions: HBV-infected primary human hepatocytes, CCK8
# Experimental: as §1
# HBsAg = assay: PHH natural infection assay, HBsAg (alphalisa); conditions: Hepatitis B virus, Hepatocyte, 72 h, read-out: HBsAg IC50
# Experimental: as §1, §2
SMILES,IC50 (HBeAg) [nM],CC50 at 144 h [1] [µM],IC50 (HBsAg) [nM]
"O=C(Nc1ccc(-c2nnc(-c3ccccc3)o2)cc1)c1ccccc1Cl [Example 9, 2-chloro-N-[4-(5-phenyl-1,3,4-oxadiazol-2-yl)phenyl]benzamide]",1690,> 100,8230
"O=C(Nc1ccc(-c2nnc(-c3ccccc3)o2)cc1)c1nccs1 [Example 27, N-[4-(5-phenyl-1,3,4-oxadiazol-2-yl)phenyl]thiazole-2-carboxamide]",1710,> 100,1520
"O=C(Nc1ccc(-c2nnc(-c3ccccc3)o2)cc1)c1ncco1 [Example 26, N-[4-(5-phenyl-1,3,4-oxadiazol-2-yl)phenyl]oxazole-2-carboxamide]",1420,> 100,910
"O=C(Nc1ccc(-c2nnc(-c3ccccc3)o2)cc1)c1ccccc1OC(F)(F)F [Example 14, N-[4-(5-phenyl-1,3,4-oxadiazol-2-yl)phenyl]-2-(trifluoromethoxy)benzamide]",2880,> 100,3590
"Cc1cc(-c2nnc(-c3ccccc3)o2)ccc1N [Example 30, 2-methyl-4-(5-phenyl-1,3,4-oxadiazol-2-yl)aniline]",3210,> 100,1430
